Test results taken from US20090247495A1, “CU[…] AND USES THEREOF” (priority 2007, published 2009).
≈ marks a conversion by molar mass, not a printed value.

Columns and labels:
[1] = tested on: Human liver cancer cell lines HepG2; test: MTT cytotoxicity assay, matrix combination of CuB and Sb on liver cancer cells; assay type: cell-based; conditions: HepG2, 2 days, Sb 0 μM
Experimental: Human liver cancer cell lines HepG2 was purchased from American Type Culture Collection (ATCC, Manassas, Va., USA). The cells were cultured in RPMI 1640 medium supplemented with 5% (v/v) fetal bovine serum (FBS) and 100 units/ml penicillin and streptomycin (Invitrogen Life Technologies) in a humidified 5% CO2 atmosphere at 37° C.
A total of 1×10^4 cells were seeded into a 96-well plate for 24 hours prior to drug treatment. They were then treated with different dosages (a multiple of 20-fold of IC50 values) of CuB or Sb for 48 hours. After the treatment, 20 μl of MTT (5 mg/ml) was added to each well and incubated for 4 hrs. Then the medium was discarded and 100 μl of dimethyl sulfoxide was added. The absorbance at 570 nm was then measured by using FLUOstar OPTIMA equipment (BMG, LABTECH GmbH, Germany). The percentage of inhibition against different dosages of CuB or Sb were plotted using the Prism software and the 50% inhibition concentration (IC50) were obtained.
The cells were then treated for 2 days and the % inhibition of growth is determined.
The excess over Bliss additivism may be calculated using the following formula and shown in Table 4: • Bliss Additivism: Combined response=CuB+Sb−(CuB)(Sb) where each effect is expressed as fractional inhibition between 0 and 1 • Excess over additivism=observed response−combined response

[2] = tested on: human pancreatic cancer cell line SW; test: MTT cell cytotoxicity assay, SW pancreatic cancer cell line; assay type: cell-based; conditions: 48 hours
Experimental: A human pancreatic cancer cell line SW was purchased from Institute of Biochemistry and Cell Biology, Shanghai Institutes for Biological Sciences, Chinese Academy of Sciences (SIBCB, CAS, China). SW cell was grown in RPMI 1640 medium supplemented with 10% FBS and maintained in a humidified 5% CO2 atmosphere at 37° C. and the culture medium was changed once in 2 days.
The cytotoxic effect of CuB on SW cell was determined using MTT (3-[4,5-dimethylthiazol-2-yl]-2,5-diphenyl tetrazolium bromide) labeled cell cytotoxicity assay. A total of 1×10^4 cells were seeded into a 96-well plate for 24 hours prior to cucurbitacin B (CuB) treatment. They were then treated with different dosages of CuB for 48 hours. After the treatment, 20 μl of MTT (5 mg/ml) was added to each well and incubated for 4 hrs. Then the medium was discarded and 100 μl of dimethyl sulfoxide was added. The absorbance at 570 nm was then measured by FLUOstar OPTIMA equipment (BMG, LABTECH GmbH, Germany). The percentage of inhibition against different dosages of CuB were plotted using the Prism software and the 50% inhibition concentration (IC50) were obtained.

Jak, Stat3 and c-raf = test: Western blot of phosphorylated Jak, Stat3 and c-raf in Panc-1 cells; assay type: cell-based, human; conditions: IC50 dosage (0.8 uM)
Experimental: The drug treatment was terminated and the cells were rinsed twice with phosphate-buffered saline and lysed at 4° C. in a lysis buffer containing 50 mM Tris-HCl, pH7.5, 100 mM NaCl, 5 mM EDTA, 40 mM NaP2O7, 1% Triton X-100, 1 mM dithiothreitol, 200 μM Na3VO4, 100 uM phenylmethysufonyl fluoride, 2 μg/ml leupeptin, 4 μg/ml aprotinin and 0.7 μg/ml pepstatin. The insoluble protein lysate were removed by centrifugation for 10 minutes at 12,000 rpm. Fifty micrograms of protein lysate was resolved using 10% SDS-polyacryamide gel electrophoresis (PAGE) and then subjected to western blot anaylsis. Western blots were performed with antibodies specific for phosphor- and Jak, Stat3 and c-raf proteins. […] The protein bands were then visualized with the Enhanced Chemiluminescence Plus (ECL Plus) detection system (Amersham).
The proteins activation was detected by western blot.
Cell lysate (50 μg) of each sample was separated in 10% SDS-PAGE followed by immuno-blotting with anti-jak1 anti-jak2, anti-jak3, anti-Stat3 and c-raf antibodies to detect the phosphorylated form of jak1, jak2, jak3, Stat3 and c-raf.

hsp27 = test: Western blot of hsp27 in HepG2, HT29 and MCF-7 cells; assay type: cell-based, human
Experimental: The human cancer cells line were serum starved for 18 hours prior to CuB/CuD treatment. Cells were incubated in a 6-well plate filled with 5 ml growth medium (RPMI with 0.2% FBS and 1% PS) at the cell density of 1×10^5 cells/ml, in the presence or absence of two different dosages of CuB/CuD for various time intervals. The drug treatment was terminated by centrifugation at 1,500 rpm for 5 minutes and the cells were rinsed twice with phosphate-buffered saline and lysed at 4° C. in a lysis buffer containing 50 mM Tris-HCl, pH7.5, 100 mM NaCl, 5 mM EDTA, 40 mM NaP2O7, 1% Triton X-100, 1 mM dithiothreitol, 200 μM Na3VO4, 100 uM phenylmethysufonyl fluoride, 2 μg/ml leupeptin, 4 μg/ml aprotinin and 0.7 μg/ml pepstatin. The insoluble protein lysate were removed by centrifugation for 10 minutes at 13,000 rpm. Fifteen micrograms of protein lysate was resolved using 10% SDS-polyacryamide gel electrophoresis (PAGE) and then subjected to western blot anaylsis. Western blots were performed with anti-Stat3, anti-Erk1/2 and anti-hsp27 antibodies specific for phosphor- and total Stat3, Erk and hsp27 proteins. The protein bands were then visualized with the Enhanced Chemiluminescence Plus (ECL Plus) detection system (Amersham). • 6.2.8.1 Inhibition Effect Cucurbitacin B/Cucurbitacin D on Stat3 Activation in HepG2 and HT29 Cells
Cells were incubated either with CuB or CuD (25 ug/ml or the dosage of IC50) for various time intervals (5, 10 or 30 mins, 1 or 4 hours). The Stat3 activation was detected by western blot.

[3] = tested on: HepG2(liver), HT29(colon) and MCF-7(breast); test: MTT cell cytotoxicity assay, three cancer cell lines; assay type: cell-based; conditions: Homo sapiens; 48 hours; range over the three cell lines
Experimental: Three human cancer cell lines (HepG2(liver), HT29(colon) and MCF-7(breast)) were purchased from American Type Culture Collection (ATCC, Manassas, Va., USA). The cells were cultured in RPMI 1640 medium supplemented with 5% (v/v) fetal bovine serum (FBS) and 100 units/ml penicillin and streptomycin (Invitrogen Life Technologies) in a humidified 5% CO2 atmosphere at 37° C.
The cytotoxic effect of CuB and CuD on these three cancer cell lines were determined using MTT (3-[4,5-dimethylthiazol-2-yl]-2,5-diphenyl tetrazolium bromide) labeled cell cytotoxicity assay. A total of 1×10^4 cells were seeded into a 96-well plate for 24 hours prior to cucurbitacin B (CuB) or cucurbitacin D (CuD) treatment. They were then treated with different dosages of CuB/CuD for 48 hours. After the treatment, 20 μl of MTT (5 mg/ml) was added to each well and incubated for 4 hrs. Then the medium was discarded and 100 μl of dimethyl sulfoxide was added. The absorbance at 570 nm was then measured by using FLUOstar OPTIMA equipment (BMG, LABTECH GmbH, Germany). The percentage of inhibition against different dosages of CuB/CuD were plotted using the Prism software and the 50% inhibition concentration (IC50) were obtained.

CC(=O)OC(C)(C)/C=C/C(=O)[C@](C)(O)C1[C@H](O)C[C@@]2(C)C3CC=C4C(C[C@H](O)C(=O)C4(C)C)[C@]3(C)C(=O)C[C@]12C (stereo partly shown) [cucurbitacin B]
% inhibition ([1]; CuB 0.056 μM): 25.89% | Excess over Bliss additivism ([1]; CuB 0.056 μM): 0 | Excess over Highest Single Agent Model ([1]; CuB 0.056 μM): 0 | % inhibition ([1]; CuB 0.167 μM): 41.93% | Excess over Bliss additivism ([1]; CuB 0.167 μM): 0 | Excess over Highest Single Agent Model ([1]; CuB 0.167 μM): 0 | % inhibition ([1]; CuB 0.5 μM): 37.94% | Excess over Bliss additivism ([1]; CuB 0.5 μM): 0 | Excess over Highest Single Agent Model ([1]; CuB 0.5 μM): 0 | % inhibition ([1]; CuB 1.5 μM): 39.01% | Excess over Bliss additivism ([1]; CuB 1.5 μM): 0 | Excess over Highest Single Agent Model ([1]; CuB 1.5 μM): 0 | % inhibition ([1]; CuB 4.5 μM): 36.57% | Excess over Bliss additivism ([1]; CuB 4.5 μM): 0 | Excess over Highest Single Agent Model ([1]; CuB 4.5 μM): 0 | IC50 [2]: ~274 nM | Jak and c-raf activation (Jak, Stat3 and c-raf; 4 hours): inhibited significantly | Stat3 activation (Jak, Stat3 and c-raf; 24 hours): inhibited significantly | Hsp27 activation (hsp27; HT29, 10 minutes): significant up-regulation | Hsp27 activation (hsp27; HepG2, 30 minutes): significant up-regulation | Hsp27 activation (hsp27; MCF-7, 4 hours): significant up-regulation | IC50 [3]: 0.31 to 1.6 µg/mL (≈ 0.555 to 2.86 µM)
